Test results from publication PMC10394516, “The pharmacokinetic profile of brensocatib and its effect on pharmacodynamic biomarkers including NE, PR3, and CatG in various rodent species” (Frontiers in Pharmacology, 2023).

Tested on: NE
Assay: Bone marrow NE activity after repeated dosing, BALB/c mice
Format: in vivo
Details: for Reduction of NE activity vs vehicle / Change From Vehicle Control (%) NE: 7 days
Procedure: Briefly, animals were weighed and randomized into different treatment groups. In total, three different dosing levels of brensocatib were tested in each species and strain; each QD dosing level was equivalent to 1.5-times the matching daily BID dose. For BID dosing, the second daily dose was administered 8-h post the morning dose. C57BL/6 mice were dosed either BID or QD for 7 consecutive days at 0/0, 0.5/0.75, 2/3, and 20/30 mg/kg/day (BID/QD). BALB/c mice were dosed for 7 consecutive days at 0/0, 0.2/0.3, 2/3, and 20/30 mg/kg/day (BID/QD). SD rats were dosed for 9 consecutive days at 0/0, 0.2/0.3, 2/3, and 20/30 mg/kg/day (BID/QD). Wistar rats were dosed for 7 consecutive days at 0/0, 0.2/0.3, 2/3, and 20/30 mg/kg/day (BID/QD).
At the completion of the study, animals were sacrificed 16–24 h post their final dose. The hind limb bones (femurs and tibias) were collected at necropsy for bone marrow analysis of NSP activities by kinetic enzymatic assays ([Basso et al., 2022]). See section Quantification of Bone Marrow NSP Activities for details.
For the mice, each animal had the femurs and tibias of both hind limbs harvested. For the rat, the femur and tibia from a single hind limb per animal was harvested. Bones were kept on wet ice until processing for bone marrow collection. In brief, bone cutters were used to cut the epiphysis (knobby ends) off the long bones to expose the bone marrow filled cavity. Each bone cavity was then flushed with 5 mL/bone (mouse) or 10 mL/bone (rat) of ice-cold RPMI media through a […] and collected in a 50-mL conical tube. Cells were spun down at 2,500 × g at 4°C for 5 min and the supernatant was aspirated. After which, bone marrow cells were lysed with 1X red blood cell (RBC) lysis buffer (Abcam, ab204733) to eliminate contaminating RBCs and washed with PBS to remove any residual RBC lysis buffer. The resulting white blood cells (WBC) were subsequently lysed with 1% (v/v) Triton X-100 in PBS. Lysates were added to 96-well plates and stored at −80°C until NSP analyses.
Bone marrow lysates prepared as described above were diluted and plated onto 96-well assay plates to quantify NSP activities as described previously ([Basso et al., 2022]). Briefly, peptide substrates for NE (N-Methoxysuccinyl-Ala-Ala-Pro-Val-7-amido-4-methylcoumarin; Sigma; St. Louis, MO; Excitation/Emission at 350/450 nm), PR3 ((7-Methoxycoumarin-4-yl)acetyl-lysyl-(picolinoyl)-Tyr-Asp-Ala-Lys-Gly-Asp-N-3-(2-4-dinitrophenyl)-2-3-diaminopropyonyl-NH2); GenScript; Piscataway, NJ; Excitation/Emission at 340/430 nm), and CatG (N-Succinyl-Ala-Ala-Pro-Phe p nitroanilide; Sigma; Absorbance at 405 nm) were added at a final assay concentration of 100 μM, 40 μM, and 200 μM, respectively, and either fluorescence or absorbance was quantified using a Synergy microplate reader (BioTek; Winooski, VT). The specific NSP activity in each sample was calculated as the total activity minus the activity in the presence of a specific NSP inhibitor (if used), including elastase inhibitor (Abcam) for NE, sivelestat (Abcam) for PR3, and cathepsin G inhibitor I (Cayman Chemical; Ann Arbor, MI) for CatG. NSP concentrations were interpolated based on their activities relative to the standard curves created using active human NE protein (Sigma), active human PR3 protein (Sigma), and active human CatG protein (Sigma), respectively. Due to unavailability of commercial mouse and/or rat NE, PR3, and CatG proteins, the corresponding human proteins were used instead since their catalytic ability is considered to be conserved across species. A portion of each cell lysate sample was retained for protein quantification using a Pierce™ BCA Protein Assay Kit (Thermo Fisher). The NSP activities were normalized for the cell lysate protein concentrations.
The Pierce™ BCA Protein Assay Kit was used to measure the total protein of the samples after lysis to allow for subsequent normalization. […]

In the case of `Cn1c(=O)oc2ccc(-c3ccc(C[C@@H](C#N)NC(=O)[C@@H]4CNCCCO4)cc3)cc21` [brensocatib], the “Reduction of NE activity vs vehicle” value (BID highest dose (20 mg/kg/day)) is reported as 79%, the “Reduction of NE activity vs vehicle” value (QD highest dose (30 mg/kg/day)) is reported as 46% and the “Combined BID and QD percentage reduction, NE” value (highest dose level 20/30 (BID/QD) mg/kg/day) is reported as 62%. For the same compound, the “Change From Vehicle Control (%) NE” value (oral BID 0.2 mg/kg/day, 16 h post final dose) was “+26% (p = 0.4425)”, the “Change From Vehicle Control (%) NE” value (oral BID 2 mg/kg/day, 16 h post final dose) was −23% (p = 0.5256) and the “Change From Vehicle Control (%) NE” value (oral BID 20 mg/kg/day, 16 h post final dose) was −79% (p = 0.0008). For the same compound, the “Change From Vehicle Control (%) NE” value (oral QD 0.3 mg/kg/day, 24 h post final dose) was −3% (p = 0.9990), the “Change From Vehicle Control (%) NE” value (oral QD 3 mg/kg/day, 24 h post final dose) was −16% (p = 0.8297) and the “Change From Vehicle Control (%) NE” value (oral QD 30 mg/kg/day, 24 h post final dose) was −46% (p = 0.0959).
